From US7666877B2, “Ergoline derivatives” (priority 2005, dated 2010)

Tests used:
CXCR3 [1] = target: T1, CXCR3 (Homo sapiens, UniProt P49682); experiment: biochemical; assay type: binding; parameters: expressed in transfected cells; host or cells: CHO cells (membrane preparation)
T1 sequence (P49682 1-368): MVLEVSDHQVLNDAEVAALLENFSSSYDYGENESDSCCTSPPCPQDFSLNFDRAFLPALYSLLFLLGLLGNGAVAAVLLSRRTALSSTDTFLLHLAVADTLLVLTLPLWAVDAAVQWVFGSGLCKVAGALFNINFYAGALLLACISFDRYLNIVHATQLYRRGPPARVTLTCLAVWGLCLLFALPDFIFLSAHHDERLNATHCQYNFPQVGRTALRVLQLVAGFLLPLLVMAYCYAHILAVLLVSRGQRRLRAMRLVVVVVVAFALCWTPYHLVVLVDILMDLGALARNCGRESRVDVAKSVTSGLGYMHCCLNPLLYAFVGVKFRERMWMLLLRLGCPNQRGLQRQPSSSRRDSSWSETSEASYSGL
Procedure: a) CXCR3 Membrane Binding Assay
A ligand binding assay is used to identify inhibitors of I-TAC binding to CXCR3 expressing membranes. Cell membranes are prepared from CHO cells transfected with human CXCR3. The binding of the ^125I labeled CXCR3 ligand e.g. I-TAC (CXCL11) to CXCR3 is assessed using the Scintillation Proximity Assay (SPA) technology (Amersham Pharmacia Biotech). Buffer or serial dilutions of compound are incubated for 2 hours at room temperature with labeled CXCR3 ligand (e.g. I-TAC), CXCR3 expressing membranes and WGA coated PVT beads. The plates are then centrifuged and counted in a Topcount (Packard) instrument. The data are reported as the concentration of compound required to achieve 50% inhibition of ^125I ligand binding.

CXCR3 [2] = target: T1, CXCR3; experiment: cell-based; parameters: expressed in transfected cells; host or cells: L1.2 cells (mouse pre-B cell line)
Procedure: b) CXCR3 Functional Assay—Ca^2+ Mobilization
CXCR3 ligand-induced Ca^2+ mobilization is assessed in CXCR3 transfected L1.2 cells (a mouse pre B cell line). For this, cells are loaded with the Ca^2+-sensitive fluorochrome Fluo-4 (Molecular Probes). After washing, the cells are pre-incubated with low molecular weight inhibitors for 2 h at room temperature. The transient increase in intracellular Ca^2+ after the addition of the CXCR3 ligand (e.g. I-TAC) is monitored in a fluorescence image plate reader (FLIPR) instrument. The inhibition of CXCR3 ligand induced Ca^2+ mobilization in the presence of CXCR3 antagonists is reported as IC50 values i.e. the concentration of compound which reduces the maximal Ca^2+ response to 50%.

CXCR3 [3] = target: T1, CXCR3; experiment: CXCR3 functional assay - chemotaxis; assay type: cell-based; parameters: expressed in transfected cells; host or cells: L1.2 cells (mouse pre-B cell line); settings: CXCR3 transfected L-1.2 cells; I-TAC; 4 h at 37° C.; read-out: IC50, concentration which leads to a reduction of migrated cells by 50%
Procedure: c) CXCR3 Functional Assay—Chemotaxis
The directed cell migration induced by CXCR3 ligands e.g. I-TAC is assessed using 96-well disposable chemotaxis chambers (Multiscreen MIC, Costar) with polycarbonate membranes containing pores of 5 μm diameter. Chemokine (e.g. I-TAC) is placed in the bottom well of the chamber and cells (e.g. CXCR3 transfected L-1.2 cells) are placed in the top compartment of the chemotaxis chamber. Cell migration across the porous membrane is allowed for 4 h at 37° C. Cells migrated from the top compartment to the bottom compartment are quantified by flow cytometry. When LMW inhibitors are tested, compounds are added to both compartments at the identical concentrations; Serial dilutions of compounds are tested to assess their inhibitory effect on CXCR3 dependent cell migration. The concentration of LMW CXCR3 inhibitors which leads to a reduction of migrated cells by 50% is reported as IC50. In this assay, the compounds of formula I have an IC50 value from 1 μM-1 nM.

[4] = membranes of CHO cells transfected with human CXCR3, 125I I-TAC (CXCL11), 2 hours at room temperature, read-out: IC50, concentration of compound required to achieve 50% inhibition of 125I ligand binding
[5] = CXCR3 transfected L1.2 cells (mouse pre B cell line), CXCR3 ligand (e.g. I-TAC), pre-incubation 2 h at room temperature, read-out: IC50, concentration of compound which reduces the maximal Ca2+ response to 50%

SMILES | IC50 (CXCR3 [1]; [4]) [nM] | IC50 (CXCR3 [2]; [5]) [nM] | IC50 (CXCR3 [1]) [nM] | IC50 (CXCR3 [2]) [nM] | IC50 (CXCR3 [3]) [nM]
O=C([C@@H]1C=C2c3cccc4[nH]cc(c34)C[C@H]2N(C(=O)Nc2ccccc2)C1)N1CCC1 [Example 23] | 61 | 8 |  |  | 
O=C([C@@H]1C=C2c3cccc4[nH]cc(c34)C[C@H]2N(C(=O)Nc2ccccc2)C1)N1CCOCC1 [Example 43] |  |  | 23 | 16 | 75
O=C([C@@H]1C=C2c3cccc4[nH]cc(c34)C[C@H]2N(C(=O)Nc2ccccc2F)C1)N1CCCC1 [Example 59] | 43 | 20 |  |  | 
CC(C)OC(=O)Cn1cc2c3c(cccc31)C1=C[C@@H](C(=O)N3CCCC3)CN(C(=O)Nc3ccccc3)[C@@H]1C2 [Example 79, [(6aR,9R)-7-Phenylcarbamoyl-9-(pyrrolidine-1-carbonyl)-6a,7,8,9-tetrahydro-6H-indolo[4,3-fg]quinolin-4-yl]-acetic acid isopropyl ester] |  |  | 145 | 53 | 
